Assay results from patent publication US12427133B2, “Combination therapies comprising schweinfurthin compounds for treating cancer” (The Penn State Research Foundation, priority 2018, dated 2025).

Legend:
B16.F10 melanoma cells = assay: Surface calreticulin expression (immunogenic cell death) by flow cytometry; assay type: cell-based, mouse (C57BL/6); conditions: 24 hours of treatment
Procedure: B16.F10 melanoma cells were plated at 1.5-2.0×10^5 cells per well in 24-well plates in RPMI-1640 medium containing standard supplements and 10% fetal bovine serum (FBS) and incubated overnight at 37° C., 5% CO2. Compounds solubilized in dimethyl sulfoxide (DMSO) were added at the indicated concentrations and incubated for a further 24 hours at 37° C., 5% CO2. Control wells were treated with similar dilutions of DMSO. Cells were trypsinized and washed with FACS buffer (2% FBS+0.1% NaN3 in PBS) and seeded at 1-2×10^5 per well in 96-well round-bottom plates. Cells were stained with rabbit anti-calreticulin polyclonal antibody (1:100, Abcam ab2907) in FACS buffer for 30 minutes at 4° C. Following two washes, cells were labeled with goat anti-rabbit Alexa Fluor 488 (1:500, Thermo Fisher A11070) in FACS buffer for 30 minutes at 4° C. Cells were washed twice and labeled with 7-aminoactinomyosin D in order to exclude non-viable cells. Samples were immediately run on a BD LSR Fortessa flow cytometer and the data analyzed using FlowJo software.
(§1) Differences in tumor growth curves were evaluated by linear mixed models for longitudinal analysis and Kaplan-Meier survival curves were evaluated by log rank test. Differences in calreticulin expression were determined by two-way ANOVA with Bonferroni post-test. All data were analyzed using Graphpad Prism (version 7) or SAS (version 9.4) software.

B16.F10 tumors = assay: In vivo tumor growth, survival and regression in the B16.F10 melanoma model with anti-PD-1 therapy; design: species or system C57BL/6J mice
Procedure: Groups of 8-week old C57BL/6J female mice were inoculated with 1×10^5 freshly cultured B16.F10 tumor cells subcutaneously in the left flank. Mice were monitored for the development of tumors and when palpable were randomized into groups. Mice received αPD-1 (clone RMP1-14; BioXCell) or control rat IgG (Sigma) at 200 μg/day intraperitoneally in a volume of 200 μl PBS twice per week for 3 weeks. Mice received daily TTI-4242 or TTI-3114 at 30 mg/kg/day or vehicle only for 5 consecutive days in a total volume of 100 μL. Tumors were measured with digital calipers and the tumor volume calculated as (length×width^2)/2. Mice were euthanized when the tumor volume exceeded 1500 mm^3, developed ascites or necrosis, or when mice became lethargic.
as §1

[1] = Tolerability / maximum tolerated dosage; conditions: in vivo
Procedure: TTI-7106 is used for these experiments near the maximum tolerated dosage (MTD) of 40 mg/kg. […] TTI-7106 is authenticated in batches based on the NMR spectroscopy and mass spectrometry. All experiments are carried out on equal groups of male and female mice.

SMILES	concentration at which high levels of surface calreticulin expression are induced (B16.F10 melanoma cells)	induction of surface calreticulin (B16.F10 melanoma cells; flow cytometry)	tumors / mice showing initial tumor regression (B16.F10 tumors; during the period of schweinfurthin administration)	tumor growth (rate / delay) (B16.F10 tumors; established s.c. B16.F10 tumors, schweinfurthin 30 mg/kg/day for 5 consecutive days, αPD-1 200 μg i.p. twice per week for 3 weeks)	maximum tolerated dosage (MTD) [1]	toxicity ([1]; 30 mg/kg)	MTD ([1]; both sexes, mouse)
COc1cc(/C=C/c2cc(O)c3c(c2)C[C@@H]2C(C)(C)[C@H](O)CC[C@@]2(C)O3)cc2c1ccn2C [TTI-4242]	below 2 nM	induced surface calreticulin	50%	neither αPD-1 alone (FIG. 2C) nor TTI-4242 alone (FIG. 2D) impacted tumor growth rate	nearly identical MTD	low toxicity	–
COc1cc(/C=C/c2cc(O)c3c(c2)C[C@@H]2C(C)(C)[C@H](O)CC[C@@]2(C)O3)cc(O)c1/C=C/c1c(C)noc1C [TTI-7106]	–	–	–	–	–	–	40 mg/kg
